# Laboratory results taken from patent US8946421B2, “Lipidated imidazoquinoline derivatives” (GlaxoSmithKline Biologicals S.A., priority 2008, dated 2015).
# Columns and labels:
# Type in all cases: in vivo
# [1] = system: C57BL/6 (H2Kb), female mice; assay: antigen-specific CD4 T cell response, intracellular cytokine staining of PBLs after vaccination; conditions: liposome-based MPL and QS-21-containing formulation; vs control formulation; dose dependent; FIG. 4
# Experimental: (§1) Formulation of the compounds for a comparison study requires taking into account the different molecular weights of the core and lipidated molecules, (e.g. 45 and 4.5 μg of the lipidated compound L3 corresponds to approximately to 15 and 1.5 μg of the corresponding core compound, “L3 core”), allowing for the side by side comparison of the corresponding groups in the study. Higher doses of L3 (200 μg) and of L3 core (150 μg) are also tested. In one such study formulations summarized and described below (table 1) are used to vaccinate 6-8 week old C57BL/6 (H2Kb), female mice (10/group). The mice receive two injections 14 days apart and are bled during weeks 1, 3 and 4 (for precise bleed days see FIG. 1). The mice are vaccinated intramuscularly. A heterologous prime/boost using recombinant adenovirus coding for the SIV-p27 protein and adjuvanted p27 are used as control groups, the adenovirus is injected at a dose of 5×10^8 VP. The study design is represented in FIG. 1. […]
# (§2) The induction of antigen-specific CD8 and CD4 responses is assessed by measuring intracellular cytokines 7 days after the second injection. […] The secretion of cytokines is blocked by Brefeldin A and the presence of 3 cytokines (IFNγ, TNFα and IL2) is evaluated by flow cytometry after intracellular staining with appropriate antibodies.
# [2] = system: C57BL/6 (H2Kb), female mice; assay: p27-specific CD8 response, intracellular cytokine staining of PBLs after vaccination; conditions: 7 days after the second immunization; co-administered with MPL and QS-21 formulations; vs control formulation without TLR7/8L; intramuscular; FIG. 2
# Experimental: as §1, §2
# [3] = system: C57BL/6 (H2Kb), female mice; assay: serum cytokine response after first injection; conditions: sera of mice 3 and 24 hrs after the first injection
# Experimental: Formulation of the compounds for a comparison study requires taking into account the different molecular weights of the core and lipidated molecules, (e.g. 45 and 4.5 μg of the lipidated compound L3 corresponds to approximately to 15 and 1.5 μg of the corresponding core compound, “L3 core”), allowing for the side by side comparison of the corresponding groups in the study. Higher doses of L3 (200 μg) and of L3 core (150 μg) are also tested. In one such study formulations summarized and described below (table 1) are used to vaccinate 6-8 week old C57BL/6 (H2Kb), female mice (10/group). The mice receive two injections 14 days apart and are bled during weeks 1, 3 and 4 (for precise bleed days see FIG. 1). The mice are vaccinated intramuscularly. A heterologous prime/boost using recombinant adenovirus coding for the SIV-p27 protein and adjuvanted p27 are used as control groups, the adenovirus is injected at a dose of 5×10^8 VP. The study design is represented in FIG. 1.
# Additional investigation illustrates the ability of lipidated TLR7/8 compounds to induce innate chemokines and pro-inflammatory cytokines among which type I IFN is known to be required for the programming of naïve CD8-T-cell (survival, differentiate and memory development). These cytokines are measured in the sera of mice 3 and 24 hrs after the first injection (FIGS. 5 and 6).
smiles,measurement,setting,value
"CCCCCCCCCCCCCCCC(=O)OC[C@H](COP(=O)(O)OCCn1c(COCC)nc2c(N)nc3ccccc3c21)OC(=O)CCCCCCCCCCCCCCC [Compound L3, 4-Amino-1-[2-(1,2-dipalmitoyl-sn-glycero-3-phospho)ethyl]-2-ethoxymethyl-1H-imidazo[4,5-c]quinoline]",p27-specific CD4 frequency,[1],increased
same,p27-specific CD8 frequency,[2],clearly increased
same,IL-6 in serum,[3]; added to QS21 and MPL,enhanced
same,TNFα in serum,[3]; added to QS21 and MPL,enhanced
same,IL-12p70 production in serum,[3]; with QS21 and MPL,"Low IL-12p70 production, close to background level"
same,Level of INFγ in serum,[3]; with QS21 and MPL,increased at low dose
same,IFNα in serum,"[3]; with QS21 and MPL, FIGS. 5 and 6",in a dose-dependent manner and at higher level than for its core counterpart
